Assay results: paper PMC5450158 (European journal of pharmaceutical sciences : official …, 2017)

What follows are compounds tested against T1, MRP3 (ABCC3) (Homo sapiens, UniProt O15438) (assay: inhibition of ATP-dependent [3H]-E217G uptake, membrane vesicles). Conditions: 10 μM E217G, 5 min, 37 °C, 100 μM compound, value is remaining uptake.
T1 sequence (O15438 whole entry): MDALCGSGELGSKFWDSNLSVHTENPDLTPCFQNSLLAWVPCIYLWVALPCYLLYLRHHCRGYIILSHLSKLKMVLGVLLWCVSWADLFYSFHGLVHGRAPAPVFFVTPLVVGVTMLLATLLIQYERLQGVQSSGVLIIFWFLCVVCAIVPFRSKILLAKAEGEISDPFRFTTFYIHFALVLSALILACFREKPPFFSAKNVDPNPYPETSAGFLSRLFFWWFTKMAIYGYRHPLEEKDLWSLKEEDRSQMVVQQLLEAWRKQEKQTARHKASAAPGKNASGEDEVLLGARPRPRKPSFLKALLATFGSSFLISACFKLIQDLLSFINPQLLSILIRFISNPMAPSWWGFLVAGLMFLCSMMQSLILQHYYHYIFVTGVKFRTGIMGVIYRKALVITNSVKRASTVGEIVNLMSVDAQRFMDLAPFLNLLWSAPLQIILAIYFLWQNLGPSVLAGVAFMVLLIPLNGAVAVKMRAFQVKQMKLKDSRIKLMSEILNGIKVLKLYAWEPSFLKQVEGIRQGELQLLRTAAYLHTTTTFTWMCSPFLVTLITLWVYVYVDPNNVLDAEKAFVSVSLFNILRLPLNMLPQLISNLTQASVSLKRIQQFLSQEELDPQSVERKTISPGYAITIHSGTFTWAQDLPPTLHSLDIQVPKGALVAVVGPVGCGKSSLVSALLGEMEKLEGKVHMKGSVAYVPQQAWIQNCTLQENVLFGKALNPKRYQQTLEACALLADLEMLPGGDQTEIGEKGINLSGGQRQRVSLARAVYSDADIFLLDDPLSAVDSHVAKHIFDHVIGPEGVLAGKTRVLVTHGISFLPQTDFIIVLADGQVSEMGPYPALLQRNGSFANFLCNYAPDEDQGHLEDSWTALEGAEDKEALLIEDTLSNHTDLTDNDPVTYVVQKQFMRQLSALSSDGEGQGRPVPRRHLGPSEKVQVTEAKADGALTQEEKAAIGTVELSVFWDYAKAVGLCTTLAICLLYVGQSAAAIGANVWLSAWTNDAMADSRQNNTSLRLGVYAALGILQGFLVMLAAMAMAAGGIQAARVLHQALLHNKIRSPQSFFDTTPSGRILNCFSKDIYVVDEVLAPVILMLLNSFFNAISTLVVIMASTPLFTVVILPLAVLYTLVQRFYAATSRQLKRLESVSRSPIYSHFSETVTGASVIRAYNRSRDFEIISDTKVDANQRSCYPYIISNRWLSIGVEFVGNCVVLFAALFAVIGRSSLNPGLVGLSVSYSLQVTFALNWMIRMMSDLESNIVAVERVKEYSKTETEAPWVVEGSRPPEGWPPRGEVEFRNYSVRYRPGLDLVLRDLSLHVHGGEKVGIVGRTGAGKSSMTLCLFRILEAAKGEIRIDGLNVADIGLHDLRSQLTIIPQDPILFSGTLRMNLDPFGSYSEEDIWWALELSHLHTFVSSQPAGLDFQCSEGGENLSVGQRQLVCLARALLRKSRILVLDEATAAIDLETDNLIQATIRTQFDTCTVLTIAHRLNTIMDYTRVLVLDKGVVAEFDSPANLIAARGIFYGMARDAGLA
In the case of `OCCN(CCO)c1nc(N2CCCCC2)c2nc(N(CCO)CCO)nc(N3CCCCC3)c2n1` [dipyridamole], the “E217G uptake, % of control at 100 μM” value is reported as 52.1%. `CNC(=O)c1cc(Oc2ccc(NC(=O)Nc3ccc(Cl)c(C(F)(F)F)c3)c(F)c2)ccn1` [regorafenib] was tested, and the “E217G uptake, % of control at 100 μM” value was 69.5%. With `CCOC(=O)C1=C(C)NC(C)=C(C(=O)OC)C1c1cccc(Cl)c1Cl` (stereo not drawn) [felodipine] the “E217G uptake, % of control at 100 μM” value was 45.8%. With `COC(=O)N[C@H](C(=O)N[C@@H](Cc1ccccc1)[C@@H](O)CN(Cc1ccc(-c2ccccn2)cc1)NC(=O)[C@@H](NC(=O)OC)C(C)(C)C)C(C)(C)C` [atazanavir] the “E217G uptake, % of control at 100 μM” value was 55.0%. With `CC[C@H](C)C(=O)O[C@H]1C[C@@H](C)C=C2C=C[C@H](C)[C@H](CC[C@@H]3C[C@@H](O)CC(=O)O3)[C@H]21` [lovastatin] the “E217G uptake, % of control at 100 μM” value was 63.5%. `NS(=O)(=O)c1cc2c(cc1Cl)NC=NS2(=O)=O` [Chlorothiazide] was tested, and the “E217G uptake, % of control at 100 μM” value was 37.4%.

These compounds were tested against T1, MRP3 (ABCC3) in the same assay as above. Conditions: not given.
Type: biochemical
Work on `CCCCc1oc2ccc(NS(C)(=O)=O)cc2c1C(=O)c1ccc(OCCCN(CCCC)CCCC)cc1` [dronedarone] yielded an IC50 of 47.4 ± 4.41 µM. `Cc1ccc(C(=O)Nc2ccc(S(=O)(=O)O)c3cc(S(=O)(=O)O)cc(S(=O)(=O)O)c23)cc1NC(=O)c1cccc(NC(=O)Nc2cccc(C(=O)Nc3cc(C(=O)Nc4ccc(S(=O)(=O)O)c5cc(S(=O)(=O)O)cc(S(=O)(=O)O)c45)ccc3C)c2)c1` [suramin] showed an IC50 of 3.33 ± 0.41 µM.

Same assay, conditions: 10 μM E217G, ATP, 5 min, 37 °C; 0.1-100 μM inhibitor
Compound `CCc1c(Cl)c(O)c(Cl)c(O)c1C(=O)O[C@H]1[C@H](O)[C@H](OC)[C@H](OC/C2=C\C=C\C[C@H](O)/C(C)=C/[C@H](CC)[C@@H](O[C@@H]3OC(C)(C)[C@@H](OC(=O)C(C)C)[C@H](O)[C@@H]3O)/C(C)=C/C(C)=C/C[C@@H]([C@@H](C)O)OC2=O)O[C@@H]1C` [fidaxomicin] has an IC50 of 1.83 ± 0.46 µM.
